Experiment [1] has as its system Rattus norvegicus. Kind of experiment: Inhibition of prolactin secretion in rat assessed as serum prolactin level at 1 mg, ip after 1 hr by radioimmunoassay relative to control.
For experiment [2], the system named is Rattus norvegicus. Kind of experiment: Inhibition of prolactin secretion in rat assessed as serum prolactin level at 10 ug, ip after 1 hr by radioimmunoassay relative to control. The format is functional.

Molecules are shown by their SMILES.

Take `CN(CCCC#N)C1CCc2ccccc2C1` (stereo not drawn): in the experiment with Rattus norvegicus [1], the “inhibition (INH)” value is listed as 24%. Same read-out and setting: the result for `COc1ccc(OC)c2c1CCC(N)C2` (stereo not drawn) reads 3%. Same read-out and setting: as for `Br.CNC1CCc2c(O)ccc(O)c2C1` (stereo not drawn), the figure is -19%.

Consider `CN1CCc2cccc3c2[C@H]1Cc1ccc(O)c(O)c1-3` [APOMORPHINE], for which the “inhibition (INH)” value in the experiment with Rattus norvegicus [1] amounted to 29%.

With `Br.CN(CCCC#N)CCc1c[nH]c2ccccc12`, the “inhibition (INH)” value with Rattus norvegicus [1] was determined as 12%. Still for that read-out and setting: as for `CNC1CCc2c(OC)ccc(OC)c2C1` (stereo not drawn), the figure is 5%; as for `Br.COc1ccc(OC)c2c1CCC(N(C)CCCC#N)C2` (stereo not drawn), -4%; as for `COc1ccc(OC)c2c1CCC(N(C)C)C2.Cl` (stereo not drawn), -3%.

Turning to `CN(C)C1CCc2c(ccc(O)c2O)C1` (stereo not drawn), the “inhibition (INH)” value in the experiment on Rattus norvegicus [1] is given as 68%. Same read-out and setting: as for `CCN(CC)C(=O)CCN(C)CCc1cc(OC)c(C)cc1OC`, the figure is 10%. As for `CC(C)[C@H]1C(=O)N2CCC[C@H]2[C@]2(O)O[C@](NC(=O)[C@@H]3C=C4c5cccc6[nH]cc(c56)C[C@H]4N(C)C3)(C(C)C)C(=O)N12` [ERGOCORNINE], the “inhibition (INH)” value in the experiment on Rattus norvegicus [2] is 60%. Take `Br.CN(C)C1CCc2c(O)ccc(O)c2C1` (stereo not drawn): in the experiment with Rattus norvegicus [1], the “inhibition (INH)” value came to 25%. Still for that read-out and setting: the result for `Br.NC1CCc2c(O)ccc(O)c2C1` (stereo not drawn) reads -9%.
